Results: patent publication US4172782A, “Recovery of catalyst” (Sumitomo Chemical Company, Limited, priority 1977, dated 1979)

Experiment: Solubility of tetra-n-butylammonium bromide in aqueous sodium hydroxide solutions
Format: physicochemical
Details: aqueous NaOH, 20° C.
Procedure: The organic quaternary ammonium salt is soluble both in water and in the oil layer. Its solubility in an aqueous alkali solution varies with the concentration of the alkali. The solubilities of tetra-n-butylammonium bromide, as an example of organic quaternary ammonium salts, in aqueous sodium hydroxide solutions were measured at 20° C. and the results obtained were as shown in Table 1.

Structure (SMILES): CCCC[N+](CCCC)(CCCC)CCCC.[Br-] [tetra-n-butylammonium bromide]
- Solubility of tetra-n-butylammonium bromide (1% by wt.): 27 % by wt.
- Solubility of tetra-n-butylammonium bromide (2% by wt.): 11 % by wt.
- Solubility of tetra-n-butylammonium bromide (5% by wt.): 2.4 % by wt.
- Solubility of tetra-n-butylammonium bromide (10% by wt.): 1.2 % by wt.
- Solubility of tetra-n-butylammonium bromide (15% by wt.): 0.07 % by wt.
